# Where two headings read alike, the source gives them in different places.
# Tests used:
# [1] = system: MDCK cells; assay: Cytotoxicity CCK-8 assay in MDCK cells; format: cell-based, canine; conditions: CCK-8
# Description: (§1) In brief, the cells were seeded on 96-well plates at 1 × 10^5 cells/mL and cultured in 100 μL of culture medium at incubator for 24 h. […] After 12 h incubation, 10 μL of CCK-8 dye was added to each well, and cells were incubated for another 2 h. Cell viability (%) was calculated using the following Equation (1):
# (§2) (1) Cell viability (%)=(ODsample−ODblank)/ (ODcontrol−ODblank) ×100%
# (§3) ODsample refers to the absorbance of a well with treated cells and CCK-8. ODblank refers to the absorbance of a well with medium and CCK-8 but without cells. ODcontrol refers to the absorbance of a well with untreated cells and CCK-8. The absorbance at 450 nm was measured by a microplate reader (Biotek Instrument; Gene Co., Ltd., VT, USA), and the results are presented as mean ± SD from triplicate wells.
# [2] = Cytotoxicity CCK-8 assay in MDCK cells; format: cell-based, canine; conditions: dog, MDCK cells, 12 h incubation, read-out: Cell viability
# Description: as §1, §2, §3
# [3] = Pharmacokinetics in rats after intravenous and intragastric administration; conditions: for bioavailability: F%
# Description: Fifty-six pathogen-free Sprague-Dawley adult rats comprising 28 males and 28 females (weighing within the range of 200–250 g) were obtained from Drug Safety Evaluation and Research Center of Shanghai University of Traditional Chinese Medicine. Animals were raised under an environmentally controlled breeding room for 7 days before commencing the experiments. Animals were housed in a well-lighted air-conditioned room (25 ± 1°C) under standard environmental conditions (12 h light-dark cycles) and given free access to rodent chow and tap water prior to the study. Rats were fasted for 12 h and provided free access to water prior to the experiments. All animal-use procedures were in accordance with the regulations for animal experimentation issued by the State Committee of Science and Technology of the People's Republic of China on 14 November 1988 and approved by the Animal Ethics Committee of Shanghai University of Traditional Chinese Medicine (No. SUTCM-2011-1107; Approval date: 10 November, 2011).
# Forty rats with 20 males and 20 females were randomly divided into five groups of eight rats in each. […] Approximately 0.25 mL of blood sample was collected from the angular vein of each conscious rat and transferred into heparinized tubes at 0 (predose), 0.03, 0.08, 0.25, 0.5, 0.75, 1.0, 2.0, 4.0, 8.0, 12.0, and 24.0 h after administration. Rats had free access to water after 4.0 h of blood sample collection. Serial blood samples were immediately centrifuged at 3,000 rpm for 15 min, and 100 μL of the supernatant plasma layer was transferred into another new 1.5 mL centrifuge tube and stored at −80°C until analysis.
# The maximum peak concentration (Cmax) and time of maximum plasma concentration (Tmax) were obtained directly from the observed concentration vs. time data.
# (5) F=(AUC0−∞,oral×Doseiv)/(AUC0−∞,iv×Doseoral)×100%
# [4] = both, Sprague-Dawley, rat, in vivo, iv, 3.3 mg/kg
# [5] = both, Sprague-Dawley, rat, in vivo, iv, 3.3 mg/kg, rats, i.v. 3.3 mg/kg
# [6] = both, Sprague-Dawley, rat, in vivo, po, 40 mg/kg
# [7] = both, Sprague-Dawley, rat, in vivo, po, 40 mg/kg, rats, p.o. 40.0 mg/kg
# [8] = both, Sprague-Dawley, rat, in vivo, po, 40 mg/kg, rats, p.o. 40.0 mg/kg vs i.v. 3.3 mg/kg
# [9] = both, Sprague-Dawley, rat, in vivo, po, 40 mg/kg, rats, harmine p.o. 40.0 mg/kg co-administered with probenecid 20.0 mg/kg
# [10] = rats, harmine p.o. 40.0 mg/kg co-administered with probenecid 20.0 mg/kg
Compound,concentration without toxicity or decreased cell viability [1],drug concentration producing notable toxicity [1],"Vd [3, 4] [L/kg]","clearance [3, 4] [L/h/kg]","k el [3, 4] [s⁻¹]","AUC(0-t) [3, 5] [µg·h/mL]","AUC(0-inf) [3, 5] [µg·h/mL]","Cmax [3, 5] [µg/mL]","MRT [3, 5] [h]","Tmax [3, 5] [h]","k el [3, 6] [s⁻¹]","AUC(0-t) [3, 7] [µg·h/mL]","AUC(0-inf) [3, 7] [µg·h/mL]","Cmax [3, 7] [µg/mL]","bioavailability [3, 8] [%]","MRT [3, 7] [h]","Tmax [3, 7] [h]","Ka ([3]; rats, i.v. 3.3 mg/kg) [h⁻¹]","CL ([3]; rats, p.o. 40.0 mg/kg) [L/h/kg]","Ka ([3]; rats, p.o. 40.0 mg/kg) [h⁻¹]",also measured
COc1ccc2c3c([nH]c2c1)C(C)=NCC3 [Harmaline],up to 25 μM,higher than 100 μM,94.1 ± 102,10.4,6.39e-05,0.299 ± 0.0643,0.307 ± 0.0643,0.258 ± 0.0649,2.53 ± 1.42,0.03,5.56e-05,0.644 ± 0.328,0.666 ± 0.322,0.118 ± 0.059,17.1 ± 10.1,6.24 ± 3.18,1.76 ± 1.11,1.26 ± 0.83,74.66925 ± 41.32069,0.71 ± 0.38,"viability at 12 h ([2]; up to 25 μM): > 90%; T1/2a ([3]; rats, i.v. 3.3 mg/kg): 1.24 ± 1.02 h; T1/2e ([3]; rats, i.v. 3.3 mg/kg): 4.05 ± 1.39 h; T1/2d ([3]; rats, i.v. 3.3 mg/kg): 1.57 ± 1.25 h; T1/2a ([3]; rats, p.o. 40.0 mg/kg): 1.74 ± 1.13 h; T1/2e ([3]; rats, p.o. 40.0 mg/kg): 5.13 ± 1.52 h; T1/2d ([3]; rats, p.o. 40.0 mg/kg): 2.40 ± 1.20 h; Vd ([3]; rats, p.o. 40.0 mg/kg): 705.97445 ± 595.53126 L/kg"
COc1ccc2c(c1)[nH]c1c(C)nccc12 [Harmine],up to 5 μM,> 25 µM,10.4 ± 5.75,2.45,8.33e-05,1.26 ± 0.238,1.27 ± 0.239,2.32 ± 0.663,1.01 ± 0.3,0.03,1.39e-05,0.154 ± 0.0465,0.184 ± 0.0574,0.067 ± 0.0343,1.09 ± 0.27,4.41 ± 1.03,0.56 ± 0.13,2.71 ± 1.24,233.43953 ± 56.2046,0.63 ± 0.42,"viability at 12 h ([2]; up to 5 μM): > 90%; AUC(0-t) [3, 9]: 0.292 ± 0.0704 µg·h/mL; AUC(0-inf) [3, 9]: 0.349 ± 0.0767 µg·h/mL; Cmax [3, 9]: 0.0989 ± 0.0311 µg/mL; bioavailability [3, 9]: 2.14 ± 0.59%; MRT [3, 9]: 13.7 ± 3.54 h; Tmax [3, 9]: 0.79 ± 0.12 h; increase of F-value after probenecid co-administration ([3]; rats, harmine p.o. 40.0 mg/kg + probenecid 20.0 mg/kg vs harmine alone): 1.96 folds; CL [3, 10]: 118.00432 ± 24.59981 L/h/kg; Ka [3, 10]: 0.73 ± 0.46 h⁻¹; Vd [3, 10]: 2464.53513 ± 990.15463 L/kg; Vd ([3]; rats, p.o. 40.0 mg/kg): 4761.64239 ± 1571.7721 L/kg"
